What all share (type): in vivo
Test [1] concerns Papaver rhoeas (weed code—PAPRH). The test is described as follows: Field trial, weed control of Papaver rhoeas in wheat. As to conditions: in Triticum aesti, 12 DAA. The method, then:
(§1) Studies were conducted to compare the weed controlling activity of the combination of bensulfuron methyl, metsulfuron methyl with herbicides selected from the classes of synthetic auxins, photosystem II inhibitors, very long chain fatty acid inhibitor, carotene biosynthesis inhibitor and compare its observed efficacy with the “expected” efficacy when bensulfuron methyl and metsulfuron methyl and select individual herbicides were used to treat both dicotyledonous and monocotyledonous weeds. Any difference between the observed and “expected” efficacy could be attributed to synergy between the two compounds in the control of […] weeds. The expected efficacy of a combination of bensulfuron methyl, metsulfuron methyl with herbicides selected from the classes of synthetic auxins, photosystem II inhibitors, very long chain fatty acid inhibitor, carotene biosynthesis inhibitor was calculated using the well-established Colby method.
In the Colby method, the expected (or predicted) response of a combination of herbicides is calculated by taking the product of the observed response for each individual component of the combination when applied alone divided by 100 and subtracting this value from the sum of the observed response for each component when applied alone. An unexpected enhancement in efficacy of the combination is then determined by comparing the observed response of the combination to the expected (or predicted) response as calculated from the observed response of each individual component alone. If the observed response of the combination is greater than the expected (or predicted) response, or stated conversely, if the difference between the observed and expected response is greater than zero, then the combination is said to be synergistic or unexpectedly effective. (Colby, S. R., Weeds, 1967(15), p. 20-22) The Colby method requires only a single dose of each herbicide applied alone and the mixture of both doses. The formula used to calculate the expected efficacy (EE) which was compared with the observed efficacy (OE) to determine the efficacy of the present invention is explained hereinbelow: EE=(B efficacy+A efficacy−(B efficacy×A efficacy)/100)
The weed control activity of the individual herbicides of the invention and their combinations were evaluated on weeds such as Viola arvensis (weed code—VIOAR), Veronica persica (weed code—VERPE), Papaver rhoeas (weed code: PAPRH), Galium aparine (weed code—GALAP), Matricaria recutita weed code—MATCH), Veronica hederifolia (weed code—VERHE) and Viola arvensis (weed code—VIOAR.). The trial was carried out in Randomized Complete Block (RCB) method, all field trials were conducted using this method. Each trial were replicated four times and conducted under GEP guidelines. Application volumes were varied for each mixture. Such field trials were carried out at various locations so as to generate independent data, the locations were chosen randomly across European nations. Bensulfuron methyl and Metsulfuron methyl and selected herbicides were sprayed according to their recommended dosage.
Further field trials were carried out to test the synergy of the combination bensulfuron methyl, metsulfuron methyl and synthetic auxin fluroxypyr. The field trials were carried out at various locations in Europe during spring. […] The target weed was Papaver rhoeas (weed code—PAPRH) and the results are recorded in the table below:
Field trials were carried out test the synergy of the combination bensulfuron methyl, metsulfuron methyl, and synthetic auxin 2,4-D. The field trials were carried out at various locations in Europe during spring. […] The target weed were Senecio vulgaris (weed code—SENVU), Rapistrum rugosum (weed code—RASRU), Papaver rhoeas (weed code—PAPRH), Viola arvensis (Weed code—VIOAR), Roemeria hybrida (Weed code—is ROEHY), Galium aparine (Weed code—GALAP) and the results are recorded in the tables 3 and 4 below: […]

The subject of test [2] is Viola arvensis (weed code—VIOAR). The test is described as follows: Field trial, weed control of Viola arvensis in wheat. To be noted: in Triticum aesti. The method, then: as §1
(§2) In the Colby method, the expected (or predicted) response of a combination of herbicides is calculated by taking the product of the observed response for each individual component of the combination when applied alone divided by 100 and subtracting this value from the sum of the observed response for each component when applied alone. An unexpected enhancement in efficacy of the combination is then determined by comparing the observed response of the combination to the expected (or predicted) response as calculated from the observed response of each individual component alone. […]
(§3) The weed control activity of the individual herbicides of the invention and their combinations were evaluated on weeds such as Viola arvensis (weed code—VIOAR), Veronica persica (weed code—VERPE), Papaver rhoeas (weed code: PAPRH), Galium aparine (weed code—GALAP), Matricaria recutita weed code—MATCH), Veronica hederifolia (weed code—VERHE) and Viola arvensis (weed code—VIOAR.). […]

The subject of test [3] is Veronica persica (weed code—VERPE). Nature of the test: Field trial, weed control of Veronica persica in wheat. To be noted: in Triticum aesti, dose 50 g + 4 g (bensulfuron methyl + metsulfuron methyl), 125 g (fluroxypyr), 50 g + 4 g + 125 g (mix). The method, then:
as §1
(§4) In the Colby method, the expected (or predicted) response of a combination of herbicides is calculated by taking the product of the observed response for each individual component of the combination when applied alone divided by 100 and subtracting this value from the sum of the observed response for each component when applied alone. […]

The subject of test [4] is Rapistrum rugosum (weed code—RASRU). Nature of the test: Field trial, weed control of Rapistrum rugosum in wheat. To be noted: in Triticum aesti. The method, then:
as §1, §2, §3

The test system of test [5] is Senecio vulgaris (weed code—SENVU). Nature of the test: Field trial, weed control of Senecio vulgaris in wheat. To be noted: in Triticum aesti, 9 DAA; dose 0.1 Kg/ha (bensulfuron methyl + metsulfuron methyl), 2.6 l/ha (2,4D dimethylamine salt), 2.6 l/ha + 0.1 Kg/ha (mix). The method, then:
as §1, §4

Test [6] has as its system Roemeria hybrida (Weed code—is ROEHY). The test is described as follows: Field trial, weed control of Roemeria hybrida in wheat. To be noted: in Triticum aesti, 15 DAA; dose 0.1 Kg/ha (bensulfuron methyl + metsulfuron methyl), 2.6 l/ha (2,4D dimethylamine salt), 0.1 Kg/ha + 2.6 l/ha (mix). The method, then: as §1, §4
The next test relates to weeds in general (TTTTT). The test is described as follows: Field trial, control of weeds in general in wheat. To be noted: in Triticum aesti, dose 50 g + 4 g (bensulfuron methyl + metsulfuron methyl); for % Weed control TTTTT, Actual: 12 DAA. The method, then: (§5) In the Colby method, the expected (or predicted) response of a combination of herbicides is calculated by taking the product of the observed response for each individual component of the combination when applied alone divided by 100 and subtracting this value from the sum of the observed response for each component when applied alone. An unexpected enhancement in efficacy of the combination is then determined by comparing the observed response of the combination to the expected (or predicted) response as calculated from the observed response of each individual component alone. If the observed response of the combination is greater than the expected (or predicted) response, or stated conversely, if the difference between the observed and expected response is greater than zero, then the combination is said to be synergistic or unexpectedly effective.
(§6) The trial was carried out in Randomized Complete Block (RCB) method, all field trials were conducted using this method. Each trial were replicated four times and conducted under GEP guidelines. Application volumes were varied for each mixture.

Test [7] concerns Galium aparine (Weed code—GALAP). The test is described as follows: Field trial, weed control of Galium aparine in wheat. To be noted: in Triticum aesti, 16 DAA, dose 0.08 g (bensulfuron methyl + metsulfuron methyl). The method, then: as §5, §6
Setting [8] is: Table 2, PAPRH, dose bensulfuron methyl 50 g, metsulfuron methyl 4 g, fluroxypyr 125 g, mix 50 g + 4 g + 125 g.
Setting [9] is: Table 2, second PAPRH column pair, dose bensulfuron methyl 50 g, metsulfuron methyl 4 g, fluroxypyr 125 g, mix 50 g + 4 g + 125 g.

SMILES strings stand for the structures. Counter-ions that a name gives are not always drawn.

Consider `COC(=O)c1ccccc1CS(=O)(=O)NC(=O)Nc1nc(OC)cc(OC)n1` [Bensulfuron methyl, methyl α-[(4,6-dimethoxypyrimidin-2-ylcarbamoyl)sulfamoyl]-o-toluate], for which the “% Weed control PAPRH, Actual” value in test [1] (setting [8]) and in test [1] (setting [9]) was 50% in each case.
As to `COC(=O)c1ccccc1S(=O)(=O)NC(=O)Nc1nc(C)nc(OC)n1` [Metsulfuron methyl, methyl 2-(4-methoxy-6-methyl-1,3,5-triazin-2-ylcarbamoylsulfamoyl)benzoate], the “% Weed control PAPRH, Actual” value in test [1] (setting [8]) is given as 48%; in test [1] (setting [9]), 48.8%.
Take `Nc1c(Cl)c(F)nc(OCC(=O)O)c1Cl` [Fluroxypyr, 4-amino-3,5-dichloro-6-fluoro-2-pyridyloxyacetic acid]: the “% Weed control VIOAR, Actual” value in test [2] (20 DAA, dose 50 g + 4 g (bensulfuron methyl + metsulfuron methyl), 125 g (fluroxypyr), 50 g + 4 g + 125 g (mix)) is reported as 31%; in test [2] (57 DAA, dose 50 g + 4 g (bensulfuron methyl + metsulfuron methyl), 125 g (fluroxypyr), 50 g + 4 g + 125 g (mix)), 28%. For the same compound, the results for the “% Weed control PAPRH, Actual” value in test [1] (setting [8]) and in test [1] (setting [9]) were 28% and 79%, respectively. The “% Weed control VERPE, Actual” value amounted to 51% in test [3] (20 DAA) and 55% in test [3] (57 DAA).
`Cc1cc(Cl)ccc1OCC(=O)O` [MCPA dimethylamine salt, 4-chloro-2-methylphenoxy acetic acid]: the “% Weed control RASRU, Actual” value is given as 34.8% in test [4] (Table 5, 12 DAA, dose 0.1 kg/ha A (bensulfuron methyl + metsulfuron methyl), 4 l/ha (MCPA dimethylamine salt), 0.1 kg/ha A + 4 l/ha (mix)) and 88.3% in test [4] (Table 5, 56 DAA, dose 0.1 kg/ha A (bensulfuron methyl + metsulfuron methyl), 4 l/ha (MCPA dimethylamine salt), 0.1 kg/ha A + 4 l/ha (mix)). Also, the “% Weed control PAPRH, Actual” value in test [1] (Table 5, dose 0.1 kg/ha A (bensulfuron methyl + metsulfuron methyl), 4 l/ha (MCPA dimethylamine salt), 0.1 kg/ha A + 4 l/ha (mix)) came to 63.8%.
For the compound `O=C(O)COc1ccc(Cl)cc1Cl` [2,4D dimethylamine salt, 2,4-Dichlorophenoxy acetic acid], the “% Weed control SENVU, Actual” value in test [5] was 62.5%. Further, the “% Weed control RASRU, Actual” value in test [4] (Table 3, 12 DAA, dose 0.1 Kg/ha (bensulfuron methyl + metsulfuron methyl), 2.6 l/ha (2,4D dimethylamine salt), 2.6 l/ha + 0.1 Kg/ha (mix)) stood at 32.4%. In test [2] (Table 4, 12 DAA, dose 0.1 Kg/ha (bensulfuron methyl + metsulfuron methyl), 2.6 l/ha (2,4D dimethylamine salt), 0.1 Kg/ha + 2.6 l/ha (mix)), the “% Weed control VIOAR, Actual” value worked out at 18.8%. In addition, the “% Weed control ROEHY, Actual” value in test [6] turned out to be 37.5%. The “% Weed control PAPRH, Actual” value in test [1] (Table 3, dose 0.1 Kg/ha (bensulfuron methyl + metsulfuron methyl), 2.6 l/ha (2,4D dimethylamine salt), 2.6 l/ha + 0.1 Kg/ha (mix)) is 37.5%.
As to `O=C(Nc1ccc(F)cc1F)c1cccnc1Oc1cccc(C(F)(F)F)c1` [Diflufenican, 2′,4′-difluoro-2-(α,α,α-trifluoro-m-tolyloxy)nicotinanilide], the “% Weed control TTTTT, Actual” value came out at 11.7% in the test on weeds in general (TTTTT) (Table 6, first column pair, 0.12 g (diflufenican), 50 g + 4 g + 0.12 g (mix)) and 3.0% in the test on weeds in general (TTTTT) (Table 6, second column pair, 0.16 g (diflufenican), 50 g + 4 g + 0.16 g (mix)). Also, in the test with weeds in general (TTTTT) (Table 6, third column pair, 12 DAA T, 0.16 g (diflufenican), 50 g + 4 g + 0.16 g (mix)), the “% Weed control TTTT, Actual” value is recorded as 15%. The “% Weed control GALAP, Actual” value in test [7] (Table 7, first column pair, 0.05 g (diflufenican), 0.08 g + 0.05 g (mix)) is given as 13%; in test [7] (Table 7, second column pair, 0.08 g (diflufenican), 0.08 g + 0.08 g (mix)), 20%.

(Values after patent US11102978B2, “Herbicide combination” (priority 2016, dated 2021).)
